Structures are written as SMILES.

What all share (assay type): biochemical
Common to all, as to settings: BQC 10 μM, λex 500 nm, λem 595 nm, 4 h, 37° C., pH 7.6, baseline subtracted

Assay [1] concerns the target T1, DT Diaphorase (Homo sapiens, UniProt P15559). Description: Oxygen-insensitive DTD-coupling enzyme assay for 3-hydroxybutyrate determination (3-hydroxybutyrate dehydrogenase, NAD+, DT Diaphorase). As for the experimental part: (§1) All the fluorimetric measurements carried out with an excitation wavelength of λex=500 nm and an emission wavelength of λem=595 nm. The solutions containing BQC (10 μM), DTD (1 unit), and the corresponding dehydrogenase (1 to 10 unit), NAD^+ (10 μM), and ethanol, 3-hydroxybutrate or glucose-6-phosphate (0 to 10 μM) in Tris-HCl buffer with a final volume of 1 mL were incubated for 4 h at 37° C. The fluorimetric intensity of each solution after subtracting the baseline intensity ([analytes]=0) was plotted versus the analytes concentration.
All different 3-hydroxybutyrate concentration analytes are tabulated in the table below, and the environment of assay is maintained in pH 7.6 at 37° C.

Assay [2] deals with T1, DT Diaphorase. Description: Oxygen-insensitive DTD-coupling enzyme assay for glucose-6-phosphate determination (glucose-6-phosphate dehydrogenase, phosphoglucomutase, NAD+, DT Diaphorase). The procedure: as §1
All different glucose-6-phophate concentration analytes are tabulated in the table below, and the environment of assay is maintained in pH 7.6 at 37° C.

The target of assay [3] is T1, DT Diaphorase. Description: Oxygen-insensitive DTD-coupling enzyme assay for ethanol determination (alcohol dehydrogenase, NAD+, DT Diaphorase). The procedure:
as §1
All different ethanol concentration analytes are tabulated in the table below, and the environment of assay is maintained in pH 7.6 at 37° C.

T1 sequence (P15559 whole entry, species assumed): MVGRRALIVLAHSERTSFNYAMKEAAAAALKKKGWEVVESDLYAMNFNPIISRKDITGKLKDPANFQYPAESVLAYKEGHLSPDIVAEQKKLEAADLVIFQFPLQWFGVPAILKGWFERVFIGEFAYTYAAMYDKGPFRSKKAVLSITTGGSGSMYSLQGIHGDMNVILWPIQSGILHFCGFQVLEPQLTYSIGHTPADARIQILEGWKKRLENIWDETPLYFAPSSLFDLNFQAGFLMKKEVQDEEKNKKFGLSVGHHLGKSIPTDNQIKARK

Take `CC1=C(C)C(=O)C(C(C)(C)CC(=O)N(C)CCN(C)C(=O)Oc2ccc3c(C#N)c(-c4nc5ccccc5s4)c(=O)oc3c2)=C(C)C1=O` [BQC]: the relative fluorescence intensity in assay [1] (3-hydroxybutyrate 1 μM) worked out at 16.17; in assay [1] (3-hydroxybutyrate 2 μM) it was 47.59; in assay [1] (3-hydroxybutyrate 4 μM), 83.74; in assay [1] (3-hydroxybutyrate 6 μM), 126.26; in assay [1] (3-hydroxybutyrate 8 μM), 144.93; in assay [1] (3-hydroxybutyrate 10 μM), 198.56. Also, the relative fluorescence intensity turned out to be 17.02 in assay [2] (glucose-6-phosphate 1 μM); 36.84 in assay [2] (glucose-6-phosphate 2 μM); 76.41 in assay [2] (glucose-6-phosphate 4 μM); 144.45 in assay [2] (glucose-6-phosphate 6 μM); 175.2 in assay [2] (glucose-6-phosphate 8 μM); 190.32 in assay [2] (glucose-6-phosphate 9 μM). Moreover, the relative fluorescence intensity is given as 207.94 in assay [2] (glucose-6-phosphate 10 μM); 10.79 in assay [3] (ethanol 0.2 μM); 26.18 in assay [3] (ethanol 0.6 μM); 35.23 in assay [3] (ethanol 0.8 μM); 39.42 in assay [3] (ethanol 1 μM); 77.06 in assay [3] (ethanol 2 μM).
